The record followed here is patent US6417176B2, “Arylsulfonanilide phosphates” (Tularik, Inc., priority 1998, dated 2002).

For this assay, the system named is HeLa cells. The note with it: 72 hours of treatment, 50% growth inhibition.

Take “5-(Pentafluorophenylsulfonamido)-2-methoxyphenyl phosphate [Example 1]”: the GI50 is 0.015 µM.

For orientation: GI50 means the concentration that inhibits growth by half. A higher GI50 goes with lower sensitivity of the cells.
